One compound from patent US20260207769A1, “ANTIBODY DRUG CONJUGATES” (YALE UNIVERSITY, priority 2022, published 2026) can be followed below.

Molecules are shown by their SMILES.

One data set relates to B16 melanoma cells. The data set is described as follows: Cell viability of B16 melanoma cells (DM1, cD31N-DM1). The format is cell-based. The settings on record: 0.0001 nm to 1000 nm, after 3 days. The source says:
(§1) Cancer cell lines were acquired from ATCC and cultured according to well known methods in the art. Treatment with cytotoxic agents, antibodies, or ADCs refers to the addition of the cytotoxic agent, antibody or ADC (i.e., DM1 or cD31N-DM1, etc.) to the culture media for a set duration.

For data set [1], the system named is Capan-1 pancreatic cancer cells. The data set is described as follows: Cell viability of Capan-1 cells (DM1, cD31N-DM1). The format is cell-based. As to conditions: after 6 days.
Description: as §1

The test system of data set [2] is DAYO medulloblastoma cells. The data set is described as follows: Cell viability of DAYO cells (DM1, cD31N-DM1). As to conditions: after 3 days. In kind it is cell-based.
Description: as §1

For the next data set, the system named is GL261 glioma cells. Description: Cell viability of GL261 cells (DM1, cD31N-DM1). The format is cell-based. As to conditions: after 6 days.
Description: as §1

For data set [3], the system named is WT DLD-1 colorectal adenocarcinoma cells. The data set is described as follows: Cell viability assay in WT DLD-1 cells. The format is cell-based, human. The settings on record: after 6 days.
Description: as §1
(§2) BRCA2 deficient (BRCA2′) cells are more sensitive to DM1 because BRCA2 participates in DNA double-stranded break (DSB) repair.
The viability assay protocol is set forth in Example 3.

Data set [4] concerns BRCA2^−/− DLD-1 colorectal adenocarcinoma cells. Description: Cell viability assay in BRCA2-/- DLD-1 cells. In kind it is cell-based, human. The settings on record: BRCA2-/- DLD-1 cells, after 6 days.
Description: as §1, §2

In data set [5] the test system is PEO-4 (WT) ovarian adenocarcinoma cells. The data set is described as follows: Cell viability of PEO-4 cells. In kind it is cell-based. As to conditions: WT PEO-4 cells, after 5 days.
Description: as §1
(§3) The effects of longer-term treatment with SN38 and cD31N-SN38 on PEO-4 (WT) and PEO-1 (BRCA2^−/−) ovarian cancer cells were investigated.

For data set [6], the system named is PEO-1 (BRCA2^−/−) ovarian adenocarcinoma cells. Description: Cell viability of PEO-1 cells. The format is cell-based. The settings on record: BRCA2-/- PEO-1 cells, after 5 days.
Description: as §1, §3

`COc1cc2cc(c1Cl)N(C)C(=O)C[C@H](OC(=O)[C@H](C)N(C)C(=O)CCS)[C@]1(C)O[C@H]1[C@H](C)[C@@H]1C[C@@](O)(NC(=O)O1)[C@H](OC)/C=C/C=C(\C)C2` [DM1, N(2′)-deacetyl-N(2′)-(3-mercapto-1-oxopropyl)-maytansine]: the “cytotoxicity (cell viability)” value with B16 melanoma cells is on record as “cytotoxic to B16 melanoma cells in a concentration-dependent manner”; in data set [1] it was “cytotoxic to the Capan-1 pancreatic cancer cells in a concentration-dependent manner”; in data set [2] it was “cytotoxic to the DAYO medulloblastoma cells in a concentration-dependent manner”; with GL261 glioma cells, “cytotoxic to the GL261 glioma cells in a concentration-dependent manner”; in data set [3], “cytotoxic”; in data set [4], “cytotoxic”. Besides, the “cytotoxicity (cell viability)” value in data set [5] and in data set [6] was “cytotoxic” each time.
